Earlier results as cited in patent US8073633B2 (The Invention Science Fund I, LLC, priority 2008, dated 2011).

Tests used:
[1] = in vivo
[2] = given with grapefruit juice as compared to water
[3] = coadministered itraconazole relative to placebo

COC(=O)C1=C(C)NC(C)=C(C(=O)OCC(C)C)C1c1ccccc1[N+](=O)[O-] (stereo not drawn) [nisoldipine]
innate oral bioavailability [1]: very low | percentage change in Cmax values [2]: 409%

CCC(C)(C)C(=O)O[C@H]1C[C@@H](C)C=C2C=C[C@H](C)[C@H](CC[C@@H](O)C[C@@H](O)CC(=O)O)[C@H]21 [simvastatin acid]
change of area under the serum concentration-time curve [AUC (0-infinity)] [3]: at least tenfold | change of peak serum concentration (Cmax) [3]: at least tenfold

O=P1(N(CCCl)CCCl)NCCCO1 (stereo not drawn) [cyclophosphamide]
relative risk for ovarian failure (lupus nephritis patients homozygous or heterozygous for CYP2C19*2, pulse cyclophosphamide therapy): 0.10 | probability of progressing to end stage renal disease (patients homozygous for CYP2B6*5 or CYP2C19*2 (P=0.0005)): higher probability | probability of achieving a complete renal response (patients homozygous for CYP2B6*5 or CYP2C19*2 (P=0.051)): lower probability

CC[C@H](C)C(=O)O[C@H]1C[C@H](O)C=C2C=C[C@H](C)[C@H](CC[C@@H](O)C[C@@H](O)CC(=O)O)[C@H]21 [pravastatin]
change of area under the serum concentration-time curve [AUC (0-infinity)] [3]: slightly increased | change of peak serum concentration (Cmax) [3]: slightly increased | plasma half-life [3]: not altered

CCOC(=O)C1=C(COCCN)NC(C)=C(C(=O)OC)C1c1ccccc1Cl (stereo not drawn) [amlodipine]
innate oral bioavailability [1]: very high | percentage change in Cmax values [2]: 115%
